The values below come from US20160017286A1, “IKAROS INHIBITION TO AUGMENT ADOPTIVE T CELL TRANSFER” (THE TRUSTEES OF THE UNIVERSITY OF PENNSYLVANIA, priority 2013, published 2016).

Experiment [1] deals with human CD8 T cells bearing anti-mesothelin CAR. The experiment is described as follows: IL2 and IFNγ production in human anti-mesothelin CAR T cells stimulated with mesothelin-coated beads. Type of experiment: cell-based. Particulars: lenalidomide 10 uM vs absence.
The subject of experiment [2] is human CD4 and CD8 T cells. The experiment in a line: IL2 and IFNγ production (flow cytometry) in human T cells stimulated with anti-CD3/anti-CD28 beads. Type of experiment: cell-based. Particulars: lenalidomide 10 uM vs absence. Background: Flow cytometry measures light scatter and fluorescence of single cells or particles in a stream.

In the case of `Nc1cccc2c1CN(C1CCC(=O)NC1=O)C2=O` (stereo not drawn) [lenalidomide], in experiment [1], the “IFNγ production in human CD8 T cells bearing anti-mesothelin CAR” value is “increased both IL2 and IFNγ production”; the “IL2 production in human CD8 T cells bearing anti-mesothelin CAR” value was “increased both IL2 and IFNγ production”. Further, in experiment [1] (listed as Lenalidomide), the “IFNγ production in human CD8 T cells bearing anti-mesothelin CAR” value is “augments IL2 and IFN levels”; the “IL2 production in human CD8 T cells bearing anti-mesothelin CAR” value was “augments IL2 and IFN levels”. For the same compound, in experiment [2], the “IFNγ production in human CD4+ T cells” value was “increased IL2 and IFNγ production”; the “IFNγ production in human CD8+ T cells” value is “increased IL2 and IFNγ production”; the “IL2 production in human CD4+ T cells” value was “increased IL2 and IFNγ production”; the “IL2 production in human CD8+ T cells” value was “increased IL2 and IFNγ production”. Also, in experiment [2] (listed as Lenalidomide), the “IFNγ production in human CD4+ T cells” value is “augments IL2 and IFN levels”; the “IFNγ production in human CD8+ T cells” value was “augments IL2 and IFN levels”; the “IL2 production in human CD4+ T cells” value is “augments IL2 and IFN levels”; the “IL2 production in human CD8+ T cells” value is “augments IL2 and IFN levels”.
